For this test, the system named is T1, CmaST8Sia IV (CmaΔ28ST8Sia IV; fish ST8Sia IV).
T1 construct: gene st8sia4; soluble Δ28 form lacking the first 28 residues (cytoplasmic tail and transmembrane domain), N-terminal 3xFLAG (p3×FLAG-CMV9), secreted by HEK293 cells; crude culture medium; ~52 kDa N-glycosylated; cDNA cloned from C. maraena with 1074 bp amplicon; printed XM_041897387 is Coregonus clupeaformis homologue
The experiment in a line: MicroPlate Sialyltransferase Assay (click biotinylation, anti-biotin-HRP), Michaelis-Menten fit. The settings on record: acceptor CD166/ALCAM 400 ng; cacodylate buffer pH 6.4, 27 °C, 4 h; 0-100 µM donor; crude culture medium as enzyme; read-out: apparent Km. It is filed as biochemical, Coregonus maraena.

As for `C#CCCC(=O)N[C@H]1[C@H]([C@H](O)[C@H](O)CO)OC(OP(=O)(O)OC[C@H]2O[C@@H](n3ccc(N)nc3=O)[C@H](O)[C@@H]2O)(C(=O)O)C[C@@H]1O` (stereo partly shown) [CMP-SiaNAl], the Km (in general, the substrate concentration at which the rate is half of its maximum) amounted to 17.6 ± 2.52 µM.

(Values after article PMC10511417, “Salmonid polysialyltransferases to generate a variety of sialic acid polymers” (Scientific Reports, 2023).)
